Measured values: ChEMBL document CHEMBL6078645, “Expanding the Solvent/Protein Region Occupation of the Non-Nucleoside Reverse Transcriptase Inhibitor Binding Pocket for Improved Broad-Spectrum Anti-HIV-1 Efficacy: from Rigid Phenyl-Diarylpyrimidines to Flexible Hydrophilic Piperidine-Diarylpyrimidines” (J Med Chem, 2024)
Converted amounts (≈) assume the structure as drawn. “And” between values parts separate entries of the source, which are not always exact repeats. Identical values can stand only once.

Assays:
[1] = tested on: Human immunodeficiency virus 1; assay: Antiviral activity against HIV-1 harboring RES056 mutant infected in human MT4 cells assessed as protection against virus-induced cytopathic effect incubated for 5 days by MTT assay; format: functional, organism-based
[2] = tested on: Human immunodeficiency virus 1; assay: Antiviral activity against HIV-1 harboring F227L/V106A double mutant infected in human MT4 cells assessed as protection against virus-induced cytopathic effect incubated for 5 days by MTT assay; format: functional, organism-based
[3] = biological target: T1, Human immunodeficiency virus type 1 reverse transcriptase (Human immunodeficiency virus 1, UniProt Q72547); assay: Inhibition of wildtype recombinant HIV-1 Reverse transcriptase incubated for 40 mins by spectrofluorometric analysis
[4] = (§1) Cytotoxicity against human MT4 cells assessed as reduction in cell viability incubated for 5 days by MTT assay; format: toxicity, cell-based; conditions: MT4 cells, time 5 day
[5] = tested on: Human immunodeficiency virus 1; assay: Antiviral activity against wild type HIV-1 IIIB infected in human MT4 cells assessed as protection against virus-induced cytopathic effect incubated for 5 days by MTT assay; format: functional, organism-based
[6] = Selectivity index, ratio of CC50 for cytotoxicity against human MT4 cells assessed as reduction in cell viability to EC50 for antiviral activity against wild type HIV-1 IIIB infected in human MT4 cells assessed as protection against virus-induced cytopathic effect; format: toxicity, cell-based; conditions: for selectivity ratio: MT4 cells, read-out: Ratio CC50/EC50
[7] = tested on: Human immunodeficiency virus 1; assay: Antiviral activity against HIV-1 harboring Y188L mutant infected in human MT4 cells assessed as protection against virus-induced cytopathic effect incubated for 5 days by MTT assay; format: functional, organism-based
[8] = biological target: T2, CYP3A4 (Homo sapiens, UniProt P08684); assay: Inhibition of CYP3A4 in human liver microsome using midazolam as substrate preincubated with compound for 10 minutes followed NADPH addition and measured after 15 mins by LC-MS/MS analysis; format: ADME, microsomes; conditions: human, human liver microsomes, probe midazolam
T2 sequence (P08684 whole entry): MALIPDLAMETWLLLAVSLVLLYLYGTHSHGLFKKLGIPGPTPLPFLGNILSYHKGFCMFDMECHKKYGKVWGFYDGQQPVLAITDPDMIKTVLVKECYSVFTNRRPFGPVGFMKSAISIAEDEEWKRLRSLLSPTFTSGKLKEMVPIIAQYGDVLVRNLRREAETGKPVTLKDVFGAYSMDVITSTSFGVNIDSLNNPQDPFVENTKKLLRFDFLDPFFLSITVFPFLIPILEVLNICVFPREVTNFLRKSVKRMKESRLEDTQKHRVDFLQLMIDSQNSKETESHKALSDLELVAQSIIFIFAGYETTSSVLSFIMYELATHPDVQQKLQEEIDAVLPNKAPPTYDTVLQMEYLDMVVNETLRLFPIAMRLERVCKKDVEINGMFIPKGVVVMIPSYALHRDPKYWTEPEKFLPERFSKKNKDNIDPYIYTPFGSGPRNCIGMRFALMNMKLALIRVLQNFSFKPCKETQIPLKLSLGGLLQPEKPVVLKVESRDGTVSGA

[9] = biological target: T2, CYP3A4; assay: Inhibition of CYP3A4 in human liver microsome using testosterone as substrate preincubated with compound for 10 minutes followed NADPH addition and measured after 15 mins by LC-MS/MS analysis; format: ADME, microsomes; conditions: human, human liver microsomes, probe testosterone
[10] = biological target: CYP2D6 (Homo sapiens, UniProt P10635); assay: Inhibition of CYP2D6 in human liver microsome preincubated with compound for 10 minutes followed NADPH addition and measured after 15 mins by LC-MS/MS analysis; format: ADME, microsomes; conditions: human, human liver microsomes
Sequence of CYP2D6 (P10635 whole entry): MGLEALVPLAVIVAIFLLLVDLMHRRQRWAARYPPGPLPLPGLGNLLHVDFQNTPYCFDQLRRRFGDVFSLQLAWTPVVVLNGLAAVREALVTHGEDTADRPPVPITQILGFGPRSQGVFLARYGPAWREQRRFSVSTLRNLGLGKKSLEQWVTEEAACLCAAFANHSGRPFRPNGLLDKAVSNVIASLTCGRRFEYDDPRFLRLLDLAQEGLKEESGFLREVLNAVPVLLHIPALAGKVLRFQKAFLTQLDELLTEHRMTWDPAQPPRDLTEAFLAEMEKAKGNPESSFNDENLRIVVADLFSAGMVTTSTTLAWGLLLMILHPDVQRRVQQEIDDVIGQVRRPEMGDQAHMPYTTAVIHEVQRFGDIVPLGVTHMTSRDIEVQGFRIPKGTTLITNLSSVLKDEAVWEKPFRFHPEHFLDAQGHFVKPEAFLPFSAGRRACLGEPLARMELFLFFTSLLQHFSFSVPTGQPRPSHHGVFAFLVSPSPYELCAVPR

[11] = biological target: T1, Human immunodeficiency virus type 1 reverse transcriptase; assay: Inhibition of HIV-1 reverse transcriptase
[12] = biological target: Cytochrome P450 2C19 (Homo sapiens, UniProt P33261); assay: Inhibition of CYP2C19 in human liver microsome preincubated with compound for 10 minutes followed NADPH addition and measured after 15 mins by LC-MS/MS analysis; format: ADME, microsomes
Sequence of Cytochrome P450 2C19 (P33261 whole entry): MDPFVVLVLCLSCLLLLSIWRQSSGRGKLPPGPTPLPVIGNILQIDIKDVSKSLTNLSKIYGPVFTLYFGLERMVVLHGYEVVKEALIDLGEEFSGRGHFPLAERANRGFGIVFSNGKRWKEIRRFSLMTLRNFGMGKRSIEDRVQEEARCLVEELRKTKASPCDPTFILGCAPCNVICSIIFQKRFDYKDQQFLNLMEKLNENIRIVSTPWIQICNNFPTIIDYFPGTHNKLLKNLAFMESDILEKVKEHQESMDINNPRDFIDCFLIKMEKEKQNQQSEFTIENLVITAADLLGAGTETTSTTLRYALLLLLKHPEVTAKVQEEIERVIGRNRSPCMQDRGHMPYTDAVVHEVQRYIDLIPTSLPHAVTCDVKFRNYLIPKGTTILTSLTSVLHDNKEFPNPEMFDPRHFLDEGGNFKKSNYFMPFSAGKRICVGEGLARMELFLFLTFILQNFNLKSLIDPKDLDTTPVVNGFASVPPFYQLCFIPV

[13] = tested on: Human immunodeficiency virus 1; assay: Antiviral activity against HIV-1 harboring Y181C mutant infected in human MT4 cells assessed as protection against virus-induced cytopathic effect incubated for 5 days by MTT assay; format: functional, organism-based; conditions: Human immunodeficiency virus 1, MT4, 120 h
[14] = biological target: CYP2C9 (Homo sapiens, UniProt P11712); assay: Inhibition of CYP2C9 in human liver microsome preincubated with compound for 10 minutes followed NADPH addition and measured after 15 mins by LC-MS/MS analysis; format: ADME, microsomes; conditions: human, human liver microsomes
Sequence of CYP2C9 (P11712 whole entry): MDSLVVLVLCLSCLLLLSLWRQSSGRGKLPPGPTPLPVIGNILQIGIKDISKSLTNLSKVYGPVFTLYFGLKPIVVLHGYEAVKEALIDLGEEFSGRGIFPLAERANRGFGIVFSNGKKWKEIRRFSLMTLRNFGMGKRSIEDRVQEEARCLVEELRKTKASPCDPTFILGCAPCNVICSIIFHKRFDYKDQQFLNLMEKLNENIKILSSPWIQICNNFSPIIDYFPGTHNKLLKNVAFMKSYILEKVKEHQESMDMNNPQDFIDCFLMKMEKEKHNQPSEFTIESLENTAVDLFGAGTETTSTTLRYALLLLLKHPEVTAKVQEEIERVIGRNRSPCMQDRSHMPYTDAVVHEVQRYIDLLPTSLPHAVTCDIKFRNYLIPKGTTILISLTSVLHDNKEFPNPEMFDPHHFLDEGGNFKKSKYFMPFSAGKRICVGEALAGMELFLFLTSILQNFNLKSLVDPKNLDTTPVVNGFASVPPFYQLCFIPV

[15] = tested on: Human immunodeficiency virus 1; assay: Antiviral activity against HIV-1 harboring E138K mutant infected in human MT4 cells assessed as protection against virus-induced cytopathic effect incubated for 5 days by MTT assay; format: functional, organism-based; conditions: Human immunodeficiency virus 1, MT4, 120 h
[16] = biological target: T3, CYP1A2 (Homo sapiens, UniProt P05177); assay: Inhibition of CYP1A2 in human liver microsome preincubated with compound for 10 minutes followed NADPH addition and measured after 15 mins by LC-MS/MS analysis; format: ADME, microsomes; conditions: human, human liver microsomes
T3 sequence (P05177 whole entry): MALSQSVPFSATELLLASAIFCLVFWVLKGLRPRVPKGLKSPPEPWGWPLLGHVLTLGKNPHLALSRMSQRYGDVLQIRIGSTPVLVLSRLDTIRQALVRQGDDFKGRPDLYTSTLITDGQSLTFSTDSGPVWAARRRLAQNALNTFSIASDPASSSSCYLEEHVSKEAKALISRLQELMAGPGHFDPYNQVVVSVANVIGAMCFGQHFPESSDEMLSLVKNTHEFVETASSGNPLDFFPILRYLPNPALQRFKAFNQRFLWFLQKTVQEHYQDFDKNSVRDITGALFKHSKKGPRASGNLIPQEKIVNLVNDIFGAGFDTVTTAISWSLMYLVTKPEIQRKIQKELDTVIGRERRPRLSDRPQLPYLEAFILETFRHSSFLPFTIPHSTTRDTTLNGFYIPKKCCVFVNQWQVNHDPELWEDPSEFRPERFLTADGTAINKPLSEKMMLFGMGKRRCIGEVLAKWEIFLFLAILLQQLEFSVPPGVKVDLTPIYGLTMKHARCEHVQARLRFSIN

[17] = tested on: Human immunodeficiency virus 1; assay: Antiviral activity against HIV-1 harboring L100I mutant infected in human MT4 cells assessed as protection against virus-induced cytopathic effect incubated for 5 days by MTT assay; format: functional, organism-based; conditions: Human immunodeficiency virus 1, MT4, 120 h
[18] = tested on: Human immunodeficiency virus 1; assay: Antiviral activity against HIV-1 harboring K103N mutant infected in human MT4 cells assessed as protection against virus-induced cytopathic effect incubated for 5 days by MTT assay; format: functional, organism-based; conditions: Human immunodeficiency virus 1, MT4, 120 h
[19] = tested on: MT4; assay: as §1; format: toxicity, cell-based; conditions: mt4, 120 h, 120 h, time 5 day
[20] = Solubility of compound in phosphate buffer at pH 2 incubated for 24 hrs by HPLC analysis; format: physicochemical
[21] = Solubility of compound in phosphate buffer at pH 7 incubated for 24 hrs by HPLC analysis; format: physicochemical
[22] = Solubility of compound incubated for 24 hrs by HPLC analysis; format: physicochemical
[23] = Solubility of compound in phosphate buffer at pH 7.4 incubated for 24 hrs by HPLC analysis; format: physicochemical
[24] = Human immunodeficiency virus 1, MT4, 120 h
[25] = Human immunodeficiency virus 1, IIIB, MT4, 120 h

| SMILES | EC50 [1, 24] | EC50 [2, 24] | IC50 [3] | CC50 at 120 h [4] | EC50 [5, 25] | selectivity ratio [6] | EC50 [7, 24] | EC50 [13] | EC50 [15] | EC50 [17] | EC50 [18] | also measured |
| --- | --- | --- | --- | --- | --- | --- | --- | --- | --- | --- | --- | --- |
| Cc1cc(-c2ccncc2)cc(C)c1Oc1nc(NC2CCN(Cc3ccc(S(N)(=O)=O)cc3)CC2)ncc1CO | 329 nM | 65 nM | 192000 nM | > 218 µM | 29 nM | > 7620 | 177 nM |  |  |  |  |  |
| N#Cc1ccc(Nc2ncc(CO)c(Oc3c(F)cc(-c4ccc(C#N)cc4)cc3F)n2)cc1 | 969 nM | 1100 nM |  | 226 µM |  | 256000 | 161 nM | 15 nM | 4 nM | 8 nM | 2 nM | IC50 at 15 min [8]: > 25 µM; IC50 at 15 min [9]: > 25 µM; IC50 at 15 min [10]: > 25 µM; EC50 [11]: 1 nM; IC50 [12]: 14 µM; IC50 at 15 min [14]: > 25 µM; IC50 at 15 min [16]: > 25 µM |
| Cc1cc(-c2ccncc2)cc(C)c1Oc1nc(NC2CCN(Cc3ccc(S(=O)(=O)NCCO)cc3)CC2)ncc1CO |  | 285 nM | 186 nM |  | 28 nM | 5080 | 466 nM |  |  |  |  | EC50 ([1]; mt4): 1230 nM and 2660 nM; EC50 ([2]; mt4): 403 nM; CC50 [19]: > 210 µM; EC50 ([5]; mt4): 36 nM; Ratio CC50/EC50 ([6]; mt4): > 5837; EC50 ([7]; mt4): 919 nM |
| Cc1cc(-c2ccncc2)cc(C)c1Oc1nc(NC2CCN(Cc3ccc(C(=O)NCCO)cc3)CC2)ncc1CO | 5680 nM | 2830 nM | 222 nM | > 215 µM | 39 nM | > 5500 | 2010 nM |  |  |  |  |  |
| Cc1cc(-c2ccc(C#N)cc2)cc(C)c1Oc1nc(NC2CCN(Cc3ccc(S(N)(=O)=O)cc3)CC2)ncc1CO.Cl |  |  |  |  |  |  |  |  |  |  |  | solubility at 24 h [20]: > 56400 µg/mL; solubility at 24 h [21]: < 1 µg/mL; solubility at 24 h [22]: 5270 µg/mL; solubility at 24 h [23]: < 1 µg/mL |
| COCCNC(=O)c1ccc(CN2CCC(Nc3ncc(CO)c(Oc4c(C)cc(-c5ccncc5)cc4C)n3)CC2)cc1 | 58 nM | 64 nM |  | 110 µM | 10 nM | 11200 | 46 nM | 34 nM | 50 nM | 11 nM | 5 nM |  |
| Cc1cc(-c2ccncc2)cc(C)c1Oc1nc(NC2CCN(Cc3ccc(C(N)=O)cc3)CC2)ncc1CO | 1470 nM | 229 nM | 183 nM | > 232 µM | 9 nM | > 24800 | 210 nM |  |  |  |  |  |
| COCCNS(=O)(=O)c1ccc(CN2CCC(Nc3ncc(CO)c(Oc4c(C)cc(-c5ccncc5)cc4C)n3)CC2)cc1 | 157 nM | 122 nM |  | 45.9 µM | 9 nM | 5130 | 48 nM | 39 nM | 48 nM | 9 nM | 7 nM |  |
| CNC(=O)c1ccc(CN2CCC(Nc3ncc(CO)c(Oc4c(C)cc(-c5ccncc5)cc4C)n3)CC2)cc1 | 925 nM | 133 nM | 253 nM | > 226 µM | 11 nM | > 20200 | 122 nM |  |  |  |  |  |
| Cc1cc(-c2ccncc2)cc(C)c1Oc1nc(NC2CCN(Cc3cccc(C(N)=O)c3)CC2)ncc1CO | 883 nM | 98 nM | 188 nM | > 232 µM | 10 nM | > 23800 | 101 nM |  |  |  |  |  |
| Cc1cc(-c2ccc(C#N)cc2)cc(C)c1Oc1nc(NC2CCN(Cc3ccc(S(=O)(=O)N4CCC(O)CC4)cc3)CC2)ncc1CO | 169 nM | 54 nM | 595 nM |  |  |  |  | 39 nM | 38 nM | 22 nM | 9 nM | EC50 ([1]; mt4): 307 nM; EC50 [11]: 8 nM and 9 nM; EC50 ([2]; mt4): 51 nM; CC50 [19]: 3.25 µM and 18.4 µM; EC50 ([7]; mt4): 125 nM and 56 nM |
| CNS(=O)(=O)c1ccc(CN2CCC(Nc3ncc(CO)c(Oc4c(C)cc(-c5ccncc5)cc4C)n3)CC2)cc1 | 405 nM | 234 nM | 198 nM | > 212 µM | 14 nM | > 14800 | 100 nM |  |  |  |  |  |
| Cc1cc(C#N)cc(C)c1Oc1nc(Nc2ccc(C#N)cc2)nc(N)c1Br [ETRAVIRINE] | 37 nM |  |  | > 4.61 µM |  |  |  |  |  | 6 nM |  | solubility at 24 h [20]: 127 µg/mL (≈ 292 µM); solubility at 24 h [21]: < 1 µg/mL; solubility at 24 h [22]: < 1 µg/mL; solubility at 24 h [23]: < 1 µg/mL |
